In series [1] the test system is Rattus norvegicus. Briefly: Antiosteoporotic activity in glucocorticoid-induced Wistar rat osteoporosis model assessed as increase in trabecula connectivity at 5 mg/kg/day, po administered six times a week for 3 months by toluidine blue staining-based light microscopic analysis relative to dexamethasone. The series is classed as functional, organism-based.
Series [2] has as its system Rattus norvegicus. In words: Antiosteoporotic activity in glucocorticoid-induced Wistar rat osteoporosis model assessed as trabecular bone volume at 5 mg/kg/day, po administered six times a week for 3 months by fluorescence assay (reference value: 33.09 +/- 5.15%). The series is classed as functional, Trabecula.
Series [3] concerns Rattus norvegicus. Briefly: Toxicity in glucocorticoid-induced Wistar rat osteoporosis model assessed as aspartate transaminase level at 5 mg/kg/day, po administered six times a week for 3 months (reference value: 177.55 +/- 116.98 U/L). The series is classed as organism-based. To be noted: in vivo. More on the design: route oral.
Series [4] has as its system Rattus norvegicus. Briefly: Toxicity in glucocorticoid-induced Wistar rat osteoporosis model assessed as triglycerides level at 5 mg/kg/day, po administered six times a week for 3 months (reference value: 1.13 +/- 0.69 mmol/L). The format is organism-based. More on the design: route oral. The note with it: in vivo.
Series [5] has as its system Rattus norvegicus. In words: Antiosteoporotic activity in glucocorticoid-induced Wistar rat osteoporosis model assessed as increase in trabecula thickness at 5 mg/kg/day, po administered six times a week for 3 months by toluidine blue staining-based light microscopic analysis relative to dexamethasone. The series is classed as functional, organism-based.
The subject of series [6] is Rattus norvegicus. In words: Antiosteoporotic activity in glucocorticoid-induced Wistar rat osteoporosis model assessed as increase in trabecula number at 5 mg/kg/day, po administered six times a week for 3 months by toluidine blue staining-based light microscopic analysis relative to dexamethasone. The format is functional, organism-based.
For series [7], the system named is Rattus norvegicus. In words: Toxicity in glucocorticoid-induced Wistar rat osteoporosis model assessed as white blood cells at 5 mg/kg/day, po administered six times a week for 3 months (reference value: 6.28 +/- 2.78 x 10^9/L). The format is organism-based. More on the design: route oral. The note with it: in vivo.
For series [8], the system named is Rattus norvegicus. In words: Antiosteoporotic activity in glucocorticoid-induced Wistar rat osteoporosis model assessed as trabecula resorption surface at 5 mg/kg/day, po administered six times a week for 3 months by fluorescence assay (reference value: 7.22 +/- 2.04%). The format is functional.
The subject of series [9] is Rattus norvegicus. In words: Toxicity in glucocorticoid-induced Wistar rat osteoporosis model assessed as alanine transaminase level at 5 mg/kg/day, po administered six times a week for 3 months (reference value: 43.73 +/- 36.21 U/L). Details: route oral. The note with it: in vivo. The format is organism-based.
The test system of series [10] is Rattus norvegicus. Briefly: Antiosteoporotic activity in glucocorticoid-induced Wistar rat osteoporosis model assessed as increase in trabecula area at 5 mg/kg/day, po administered six times a week for 3 months by toluidine blue staining-based light microscopic analysis relative to dexamethasone. The format is functional, organism-based.
For series [11], the system named is Rattus norvegicus. Briefly: Toxicity in glucocorticoid-induced Wistar rat osteoporosis model assessed as lymph level at 5 mg/kg/day, po administered six times a week for 3 months (reference value: 50.35 +/- 12.96%). The series is classed as organism-based. More on the design: route oral. To be noted: in vivo.
Series [12] has as its system Rattus norvegicus. In words: Toxicity in glucocorticoid-induced Wistar rat osteoporosis model assessed as neutrophilic granulocytes level at 5 mg/kg/day, po administered six times a week for 3 months (reference value: 31.95 +/- 8.33%). Details: route oral. The format is organism-based. To be noted: in vivo.
For series [13], the system named is Rattus norvegicus. Briefly: Antiosteoporotic activity in glucocorticoid-induced Wistar rat osteoporosis model assessed as trabecula formation surface at 5 mg/kg/day, po administered six times a week for 3 months by fluorescence assay (reference value: 7.82 +/- 2.46%). The series is classed as functional.
Series [14] concerns Rattus norvegicus. Briefly: Antiosteoporotic activity in glucocorticoid-induced Wistar rat osteoporosis model assessed as mineral apposition rate at 5 mg/kg/day, po administered six times a week for 3 months by fluorescence assay (reference value: 1.06 +/- 0.27 micrometer/day). The series is classed as functional.
Series [15] relates to Rattus norvegicus. Briefly: Toxicity in glucocorticoid-induced Wistar rat osteoporosis model assessed as lymph level at 0.05 ug/kg/day, po administered six times a week for 3 months (reference value: 50.35 +/- 12.96%). The series is classed as organism-based. The note with it: in vivo, 5e-05 mg/kg.
The test system of series [16] is Rattus norvegicus. Briefly: Toxicity in glucocorticoid-induced Wistar rat osteoporosis model assessed as aspartate transaminase level at 0.05 ug/kg/day, po administered six times a week for 3 months (reference value: 177.55 +/- 116.98 U/L). To be noted: in vivo, 5e-05 mg/kg. The series is classed as organism-based.
The subject of series [17] is Rattus norvegicus. Briefly: Toxicity in glucocorticoid-induced Wistar rat osteoporosis model assessed as triglycerides level at 0.05 ug/kg/day, po administered six times a week for 3 months (reference value: 1.13 +/- 0.69 mmol/L). The format is organism-based. The note with it: in vivo, 5e-05 mg/kg.
Series [18] concerns Rattus norvegicus. Briefly: Antiosteoporotic activity in glucocorticoid-induced Wistar rat osteoporosis model assessed as trabecular bone volume at 0.05 ug/kg/day, po administered six times a week for 3 months by fluorescence assay (reference value: 33.09 +/- 5.15%). The format is functional, Trabecula.
In series [19] the test system is Rattus norvegicus. In words: Antiosteoporotic activity in glucocorticoid-induced Wistar rat osteoporosis model assessed as increase in trabecula number at 0.05 ug/kg/day, po administered six times a week for 3 months by toluidine blue staining-based light microscopic analysis relative to dexamethasone. The series is classed as functional, organism-based.
Series [20] has as its system Rattus norvegicus. Briefly: Toxicity in glucocorticoid-induced Wistar rat osteoporosis model assessed as white blood cells at 0.05 ug/kg/day, po administered six times a week for 3 months (reference value: 6.28 +/- 2.78 x 10^9/L). To be noted: in vivo, 5e-05 mg/kg. The format is organism-based.
The test system of series [21] is Rattus norvegicus. Briefly: Antiosteoporotic activity in glucocorticoid-induced Wistar rat osteoporosis model assessed as increase in trabecula thickness at 0.05 ug/kg/day, po administered six times a week for 3 months by toluidine blue staining-based light microscopic analysis relative to dexamethasone. The series is classed as functional, organism-based.
Series [22] has as its system Rattus norvegicus. In words: Antiosteoporotic activity in glucocorticoid-induced Wistar rat osteoporosis model assessed as trabecula resorption surface at 0.05 ug/kg/day, po administered six times a week for 3 months by fluorescence assay (reference value: 7.22 +/- 2.04%). The series is classed as functional.
Series [23] deals with Rattus norvegicus. In words: Toxicity in glucocorticoid-induced Wistar rat osteoporosis model assessed as neutrophilic granulocytes level at 0.05 ug/kg/day, po administered six times a week for 3 months (reference value: 31.95 +/- 8.33%). The format is organism-based. The note with it: in vivo, 5e-05 mg/kg.
The subject of series [24] is Rattus norvegicus. In words: Antiosteoporotic activity in glucocorticoid-induced Wistar rat osteoporosis model assessed as mineral apposition rate at 0.05 ug/kg/day, po administered six times a week for 3 months by fluorescence assay (reference value: 1.06 +/- 0.27 micrometer/day). The format is functional.
The subject of series [25] is Rattus norvegicus. In words: Antiosteoporotic activity in glucocorticoid-induced Wistar rat osteoporosis model assessed as increase in trabecula area at 0.05 ug/kg/day, po administered six times a week for 3 months by toluidine blue staining-based light microscopic analysis relative to dexamethasone. The series is classed as functional, organism-based.
Series [26] concerns Rattus norvegicus. Briefly: Antiosteoporotic activity in glucocorticoid-induced Wistar rat osteoporosis model assessed as increase in trabecula connectivity at 0.05 ug/kg/day, po administered six times a week for 3 months by toluidine blue staining-based light microscopic analysis relative to dexamethasone. The series is classed as functional, organism-based.
In series [27] the test system is Rattus norvegicus. In words: Antiosteoporotic activity in glucocorticoid-induced Wistar rat osteoporosis model assessed as trabecula formation surface at 0.05 ug/kg/day, po administered six times a week for 3 months by fluorescence assay (reference value: 7.82 +/- 2.46%). The series is classed as functional.
For series [28], the system named is Rattus norvegicus. In words: Toxicity in glucocorticoid-induced Wistar rat osteoporosis model assessed as alanine transaminase level at 0.05 ug/kg/day, po administered six times a week for 3 months (reference value: 43.73 +/- 36.21 U/L). The format is organism-based. To be noted: in vivo, 5e-05 mg/kg.

The source made the active and inactive calls. The rule behind the calls is not given here.

For the compound `O=C(c1ccc(OCCN2CCCCC2)cc1)c1c(-c2ccc(O)cc2)sc2cc(O)ccc12` [RALOXIFENE], the outcome with Rattus norvegicus [1], in the series on Rattus norvegicus [5], with Rattus norvegicus [6] and with Rattus norvegicus [10] was Active. Also, the Activity in the series on Rattus norvegicus [2] worked out at 34.35%; with Rattus norvegicus [3], 115.27 U/L; in the series on Rattus norvegicus [4], 0.76 mmol/L; in the series with Rattus norvegicus [7], 2.94 ×10⁹ /L; in the series on Rattus norvegicus [8] it was 7.82%; in the series with Rattus norvegicus [9], 35.09 U/L. Also, the Activity is listed as 39.05% in the series on Rattus norvegicus [11], 40.58% in the series on Rattus norvegicus [12], 7.04% in the series with Rattus norvegicus [13] and 1.16 micrometer/day in the series with Rattus norvegicus [14].

Take `C=C1/C(=C\C=C2/CCC[C@]3(C)[C@@H]([C@H](C)CCCC(C)C)CC[C@@H]23)C[C@@H](O)C[C@@H]1O` [ALFACALCIDOL]: the Activity in the series on Rattus norvegicus [15] is listed as 34.83%; in the series with Rattus norvegicus [16] it was 109.73 U/L; with Rattus norvegicus [17], 0.51 mmol/L; with Rattus norvegicus [18], 28.54%; with Rattus norvegicus [20] it was 3.42 ×10⁹ /L; with Rattus norvegicus [22] it was 8.15%. Besides, the Activity in the series with Rattus norvegicus [23] was determined as 48.13%; with Rattus norvegicus [24] it was 1.05 micrometer/day; in the series with Rattus norvegicus [27], 6.72%; with Rattus norvegicus [28] it was 30.64 U/L. In addition, the outcome with Rattus norvegicus [19], in the series with Rattus norvegicus [21], with Rattus norvegicus [25] and in the series with Rattus norvegicus [26] was Active.

These data come from ChEMBL document CHEMBL3414511, “Synthesis of a novel class of substituted benzothiophene or benzofuran derivatives as BMP-2 up-regulators and evaluation of the BMP-2-up-regulating effects in vitro and the effects on glucocorticoid-induced osteoporosis in rats” (Eur J Med Chem, 2015).
